Values belong to the compound of their own block, whether it stands above or below them.
Molecular target: T1, Bcl-2 protein (Recombinant Human Bcl-2 Protein) (Homo sapiens, UniProt P10415)
T1 construct: purchased Novus NBP2-34889
Assay: Binding evaluation of mixture library compounds to Bcl-2 using AS-MS (affinity selection mass spectrometry)
Details: for ASMS ratio (%) n = 1: replicate n = 1; for ASMS ratio (%) n = 1 / ASMS ratio (%) n = 2: ASMS Ratio(%)=(A−C)/B×100; for ASMS ratio (%) n = 2: replicate n = 2
In short: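 Pooled library of ~1200 compounds ([…] each, final) incubated with recombinant human Bcl-2 (20 μM final) in Tris-HCl pH 7.4, NaCl, Tween-20, DTT buffer, dark, 23° C., 1 h. Bound fraction recovered by SEC spin column, organic extraction, reversed-phase LC/MS. ASMS Ratio (%) = (A−C)/B×100 versus protein-free standard and SEC blank.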

[1] = AS-MS on the mixture of 1200 library compounds
[2] = AS-MS, mixture of 1200 compounds, Bcl-2

T1 sequence (P10415 whole entry): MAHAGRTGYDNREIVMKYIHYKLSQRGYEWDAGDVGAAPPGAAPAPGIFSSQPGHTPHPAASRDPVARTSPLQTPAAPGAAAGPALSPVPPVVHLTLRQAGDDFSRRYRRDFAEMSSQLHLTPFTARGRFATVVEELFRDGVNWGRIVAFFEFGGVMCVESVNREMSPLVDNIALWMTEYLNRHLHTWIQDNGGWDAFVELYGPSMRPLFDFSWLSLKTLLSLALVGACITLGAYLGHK

ASMS ratio (%) n = 1 [1]: 1.4% | ASMS ratio (%) n = 2 [1]: −2.7%
Compound: CCOc1cncc(-c2ccccc2CCC(=O)N2CCN(c3ccc(C(=O)N(C)CC45CC6CC(CC(C6)C4)C5)nn3)CC2)c1 [B3A012-01, N-(1-Adamantylmethyl)-6-[4-[3-[2-(5-ethoxypyridin-3-yl)phenyl]propanoyl]piperazin-1-yl]-N-methylpyridazine-3-carboxamide]

ASMS ratio (%) (n = 1): 0.0% | ASMS ratio (%) (n = 2): −0.5%
Compound: CCOc1cncc(-c2ccc(CN3CCN(c4ccc(C(=O)NS(=O)(=O)CCC(F)(F)F)cc4)CC3)cc2F)c1 [B2N052-01, 4-[4-[[4-(5-Ethoxypyridin-3-yl)-3-fluorophenyl]methyl]piperazin-1-yl]-N-(3,3,3-trifluoropropylsulfonyl)benzamide]

ASMS ratio (%) n = 1 (AS-MS, mixture library, Bcl-2): 0.0% | ASMS ratio (%) n = 2 (AS-MS, mixture library, Bcl-2): 0.0%
Compound: CCOc1cncc(-c2ccc(CN3CCN(c4ccc(C(=O)N(CC)CC)nn4)CC3)c(OC)c2)c1 [B4J080-01]

ASMS ratio (%) n = 1 (AS-MS, mixture library, Bcl-2): 0.0% | ASMS ratio (%) n = 2 (AS-MS, mixture library, Bcl-2): 0.0%
Compound: CCOc1cncc(-c2ccc(CN3CCN(c4ccc(C(=O)N(CC)CC)nn4)CC3)c(CC)c2)c1 [B4J076-01, 6-[4-[[4-(5-Ethoxypyridin-3-yl)-2-ethylphenyl]methyl]piperazin-1-yl]-N,N-diethylpyridazine-3-carboxamide]

ASMS ratio (%) (n = 1): 56.5% | ASMS ratio (%) (n = 2): 0.0%
Compound: CCOc1cccc(-c2csc(CN3CCN(c4ccc(C(=O)NS(=O)(=O)c5ccc(NCCSc6ccccc6)c(C(F)(F)F)c5)nn4)CC3)c2)c1 [B2R093-01, 6-[4-[[4-(3-Ethoxyphenyl)thiophen-2-yl]methyl]piperazin-1-yl]-N-[4-(2-phenylsulfanylethylamino)-3-(trifluoromethyl)phenyl]sulfonylpyridazine-3-carboxamide]

ASMS ratio (%) n = 1 (AS-MS, mixture library, Bcl-2): 17.6% | ASMS ratio (%) n = 2 (AS-MS, mixture library, Bcl-2): 0.0%
Compound: CCOc1cccc(-c2ccc(CN3CCN(c4ccc(C(=O)NS(=O)(=O)c5ccc(NCCSc6ccccc6)c([N+](=O)[O-])c5)nn4)CC3)c(OC)c2)c1 [B2Q079-01, 6-[4-[[4-(3-Ethoxyphenyl)-2-methoxyphenyl]methyl]piperazin-1-yl]-N-[3-nitro-4-(2-phenylsulfanylethylamino)phenyl]sulfonylpyridazine-3-carboxamide]

ASMS ratio (%) (n = 1): 0.0% | ASMS ratio (%) (n = 2): 0.0%
Compound: CCOc1cncc(-c2csc(C(=O)N3CCN(c4ccc(C(=O)NS(=O)(=O)c5ccc(NCCSc6ccccc6)c(C(F)(F)F)c5)nn4)CC3)c2)c1 [B2R002-01, 6-[4-[4-(5-Ethoxypyridin-3-yl)thiophene-2-carbonyl]piperazin-1-yl]-N-[4-(2-phenylsulfanylethylamino)-3-(trifluoromethyl)phenyl]sulfonylpyridazine-3-carboxamide]

ASMS ratio (%) n = 1 (AS-MS, mixture library, Bcl-2): 15.6% | ASMS ratio (%) n = 2 (AS-MS, mixture library, Bcl-2): 12.1%
Compound: CCOc1cncc(-c2ccc(CN3CCN(c4ccc(C(=O)NS(=O)(=O)c5ccc(NCCSc6ccccc6)c([N+](=O)[O-])c5)nn4)CC3)cc2F)c1 [B2Q078-01]

ASMS ratio (%) n = 1 (AS-MS, mixture library, Bcl-2): 2.1% | ASMS ratio (%) n = 2 (AS-MS, mixture library, Bcl-2): 0.0%
Compound: CCOc1cccc(-c2ccc(CN3CCN(c4ccc(C(=O)N(CC)CC)nn4)CC3)cc2C)c1 [B4J073-01, 6-[4-[[4-(3-Ethoxyphenyl)-3-methylphenyl]methyl]piperazin-1-yl]-N,N-diethylpyridazine-3-carboxamide]

ASMS ratio (%) n = 1 (AS-MS, mixture library, Bcl-2): 12.8% | ASMS ratio (%) n = 2 (AS-MS, mixture library, Bcl-2): 0.2%
Compound: CCOc1cccc(-c2cc(C(=O)N3CCN(c4ccc(C(=O)NS(=O)(=O)c5ccc(NCCSc6ccccc6)c([N+](=O)[O-])c5)nn4)CC3)cc(C(F)(F)F)c2)c1 [B2Q017-01, 6-[4-[3-(3-Ethoxyphenyl)-5-(trifluoromethyl)benzoyl]piperazin-1-yl]-N-[3-nitro-4-(2-phenylsulfanylethylamino)phenyl]sulfonylpyridazine-3-carboxamide]

ASMS ratio (%) (n = 1): 0.0% | ASMS ratio (%) (n = 2): 0.0%
Compound: CCOc1cccc(-c2ccc(CN3CCN(c4ccc(C(=O)NS(=O)(=O)CCC(F)(F)F)cc4)CC3)c(CC)c2)c1 [B2N049-01, 4-[4-[[4-(3-Ethoxyphenyl)-2-ethylphenyl]methyl]piperazin-1-yl]-N-(3,3,3-trifluoropropylsulfonyl)benzamide]

ASMS ratio (%) n = 1 [1]: −0.9% | ASMS ratio (%) n = 2 [1]: 4.4%
Compound: CCOc1cncc(-c2cc(CN3CCN(c4ccc(C(=O)N(C)CC56CC7CC(CC(C7)C5)C6)nn4)CC3)cc(OCC)c2)c1 [B3A082-01, N-(1-Adamantylmethyl)-6-[4-[[3-ethoxy-5-(5-ethoxypyridin-3-yl)phenyl]methyl]piperazin-1-yl]-N-methylpyridazine-3-carboxamide]

Further lines, the compound ahead of its results:

Compound: CCOc1cncc(-c2ccc(C(=O)N3CCN(c4ccc(C(=O)NS(C)(=O)=O)cc4)CC3)cc2F)c1 [B2I028-01, 4-[4-[4-(5-Ethoxypyridin-3-yl)-3-fluorobenzoyl]piperazin-1-yl]-N-methylsulfonylbenzamide]
ASMS ratio (%) n = 1 (AS-MS, mixture library, Bcl-2): 0.0% | ASMS ratio (%) n = 2 (AS-MS, mixture library, Bcl-2): 0.0%

Compound: CCOc1cncc(-c2cc(OC)c(CN3CCN(c4ccc(C(=O)Nc5ccc(OC)cc5)nn4)CC3)c(OC)c2)c1 [B1O086-01, 6-[4-[[4-(5-Ethoxypyridin-3-yl)-2,6-dimethoxyphenyl]methyl]piperazin-1-yl]-N-(4-methoxyphenyl)pyridazine-3-carboxamide]
ASMS ratio (%) n = 2 [1]: −0.4%

Compound: CCOc1cccc(C#Cc2cc(C(=O)N3CCN(c4ccc(C(=O)Nc5ccc(OC)cc5)nn4)CC3)cc(C(F)(F)F)c2)c1 [B1O019-01, 6-[4-[3-[2-(3-Ethoxyphenyl)ethynyl]-5-(trifluoromethyl)benzoyl]piperazin-1-yl]-N-(4-methoxyphenyl)pyridazine-3-carboxamide]
ASMS ratio (%) n = 1 [1]: 0.6% | ASMS ratio (%) n = 2 [1]: 0.2%

Compound: CCOc1cccc(-c2cc(CN3CCN(c4ccc(C(=O)N(CC)CC)cc4)CC3)cc(C(F)(F)F)c2)c1 [B4J061-01, 4-[4-[[3-(3-Ethoxyphenyl)-5-(trifluoromethyl)phenyl]methyl]piperazin-1-yl]-N,N-diethylbenzamide]
ASMS ratio (%) n = 1 (AS-MS, mixture library, Bcl-2): 1.6% | ASMS ratio (%) n = 2 (AS-MS, mixture library, Bcl-2): −1.8%

Compound: CCOc1cncc(-c2ccc(C(=O)N3CCN(c4ccc(C(=O)NS(=O)(=O)CC56CC7CC(CC(C7)C5)C6)cc4)CC3)cc2F)c1 [B2A028-01, N-(1-Adamantylmethylsulfonyl)-4-[4-[4-(5-ethoxypyridin-3-yl)-3-fluorobenzoyl]piperazin-1-yl]benzamide]
ASMS ratio (%) n = 1 (AS-MS, mixture library, Bcl-2): −1.0% | ASMS ratio (%) n = 2 (AS-MS, mixture library, Bcl-2): 1.2%

Compound: CCOc1cccc(-c2ccc(CN3CCN(c4ccc(C(=O)NS(=O)(=O)CC56CC7CC(CC(C7)C5)C6)cc4)CC3)c3ccccc23)c1 [B2A065-01, N-(1-Adamantylmethylsulfonyl)-4-[4-[[4-(3-ethoxyphenyl)naphthalen-1-yl]methyl]piperazin-1-yl]benzamide]
ASMS ratio (%) n = 1 (AS-MS, mixture library, Bcl-2): 10.5% | ASMS ratio (%) n = 2 (AS-MS, mixture library, Bcl-2): −2.9%

Compound: CCOc1cncc(-c2csc(C(=O)N3CCN(c4ccc(C(=O)NCC56CC7CC(CC(C7)C5)C6)cc4)CC3)c2)c1 [B1A024-01, N-(1-Adamantylmethyl)-4-[4-[4-(5-ethoxypyridin-3-yl)thiophene-2-carbonyl]piperazin-1-yl]benzamide]
ASMS ratio (%) n = 1 [2]: 4.1% | ASMS ratio (%) n = 2 [2]: 1.2%

Compound: CCOc1cncc(-c2ccc(CN3CCN(c4ccc(C(=O)NS(C)(=O)=O)nn4)CC3)c(OC)c2)c1 [B2I080-01, 6-[4-[[4-(5-Ethoxypyridin-3-yl)-2-methoxyphenyl]methyl]piperazin-1-yl]-N-methylsulfonylpyridazine-3-carboxamide]
ASMS ratio (%) (n = 1): 0.0%

Compound: 6-[4-[5-[2-(5-Ethoxypyridin-3-yl)ethynyl]pyridine-3-carbonyl]piperazin-1-yl]-N-propylpyridazine-3-carboxamide [B1M056-01]
ASMS ratio (%) n = 1 [2]: 0.5% | ASMS ratio (%) n = 2 [2]: 0.0%

Compound: CCOc1cccc(C#Cc2ccccc2C(=O)N2CCN(c3ccc(C(=O)Nc4ccc(OC)cc4)cc3)CC2)c1 [B1O029-01, 4-[4-[2-[2-(3-Ethoxyphenyl)ethynyl]benzoyl]piperazin-1-yl]-N-(4-methoxyphenyl)benzamide]
ASMS ratio (%) n = 1 [1]: 0.0% | ASMS ratio (%) n = 2 [1]: 0.0%

Compound: CCOc1cncc(-c2ccc(C(C)N3CCN(c4ccc(C(=O)NCC(F)(F)F)cc4)CC3)cc2)c1 (stereo not shown) [B1K098-01, 4-[4-[1-[4-(5-Ethoxypyridin-3-yl)phenyl]ethyl]piperazin-1-yl]-N-(2,2,2-trifluoroethyl)benzamide]
ASMS ratio (%) n = 1 [2]: −1.1% | ASMS ratio (%) n = 2 [2]: −2.4%

Compound: CCOc1cncc(-c2ccc(C(C)N3CCN(c4ccc(C(=O)N(CC)CC)cc4)CC3)c(F)c2)c1 (stereo not shown) [B4J100-01, 4-[4-[1-[4-(5-Ethoxypyridin-3-yl)-2-fluorophenyl]ethyl]piperazin-1-yl]-N,N-diethylbenzamide]
ASMS ratio (%) n = 1 (AS-MS, mixture library, Bcl-2): 0.0% | ASMS ratio (%) n = 2 (AS-MS, mixture library, Bcl-2): 0.0%

Compound: CCOc1cccc(-c2ccc(CN3CCN(c4ccc(C(=O)NCC56CC7CC(CC(C7)C5)C6)nn4)CC3)c3ccccc23)c1 [B1A091-01, N-(1-Adamantylmethyl)-6-[4-[[4-(3-ethoxyphenyl)naphthalen-1-yl]methyl]piperazin-1-yl]pyridazine-3-carboxamide]
ASMS ratio (%) n = 1 [2]: 0.0% | ASMS ratio (%) n = 2 [2]: 15.4%

Compound: 6-[4-[[4-(3-Ethoxyphenyl)thiophen-2-yl]methyl]piperazin-1-yl]-N-propylpyridazine-3-carboxamide [B1M049-01]
ASMS ratio (%) n = 1 [2]: −0.9% | ASMS ratio (%) n = 2 [2]: −0.4%

Compound: CCOc1cncc(C#Cc2cc(C(=O)N3CCN(c4ccc(C(=O)N(CC)CC)cc4)CC3)cc(C(F)(F)F)c2)c1 [B4J042-01, 4-[4-[3-[2-(5-Ethoxypyridin-3-yl)ethynyl]-5-(trifluoromethyl)benzoyl]piperazin-1-yl]-N,N-diethylbenzamide]
ASMS ratio (%) n = 1 [1]: 1.0% | ASMS ratio (%) n = 2 [1]: 0.0%
